# Data from the supplement of paper PMC10307832.
# Key:
# Experiment in all cases: relative viability (nuclei count vs DMSO), 5 days (fraction); higher = more cells survive
# Bleomycin + Olaparib = compound: CC1=C(N=C(N=C1N)[C@H](CC(=O)N)NC[C@@H](C(=O)N)N)C(=O)N[C@@H]([C@H](C2=CN=CN2)OC3C(C(C(C(O3)CO)O)O)OC4C(C(C(C(O4)CO)O)OC(=O)N)O)C(=O)N[C@H](C)[C@H]([C@H](C)C(=O)N[C@@H]([C@@H](C)O)C(=O)NCCC5=NC(=CS5)C6=NC(=CS6)C(=O)NCCC[S+](C)C)O [Bleomycin] + O=C(c1cc(Cc2n[nH]c(=O)c3ccccc23)ccc1F)N1CCN(C(=O)C2CC2)CC1 [Olaparib] (partner 8 µM); conditions: main component drawn
# Outline: (§1)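 Dosing by pin tool came one day after lung cancer cell lines were seeded in 1536-well plates, using either one drug or a fixed anchor-drug dose plus five library-drug doses (not always all listed) in √10 steps. After 5 days, nuclei were counted on 4× images. Relative viability is treated-well nuclei count divided by vehicle-well nuclei count, and values are medians of duplicate plates.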
# Bleomycin + Lapatinib = compound: CC1=C(N=C(N=C1N)[C@H](CC(=O)N)NC[C@@H](C(=O)N)N)C(=O)N[C@@H]([C@H](C2=CN=CN2)OC3C(C(C(C(O3)CO)O)O)OC4C(C(C(C(O4)CO)O)OC(=O)N)O)C(=O)N[C@H](C)[C@H]([C@H](C)C(=O)N[C@@H]([C@@H](C)O)C(=O)NCCC5=NC(=CS5)C6=NC(=CS6)C(=O)NCCC[S+](C)C)O [Bleomycin] + CS(=O)(=O)CCNCc1ccc(-c2ccc3ncnc(Nc4ccc(OCc5cccc(F)c5)c(Cl)c4)c3c2)o1 [Lapatinib] (partner 2 µM); conditions: main component drawn
# Outline: as §1
# Etoposide + Tozasertib = compound: COc1cc([C@@H]2c3cc4c(cc3[C@@H](O[C@@H]3O[C@@H]5CO[C@@H](C)O[C@H]5[C@H](O)[C@H]3O)[C@H]3COC(=O)[C@H]23)OCO4)cc(OC)c1O [Etoposide] + Cc1cc(Nc2cc(N3CCN(C)CC3)nc(Sc3ccc(NC(=O)C4CC4)cc3)n2)n[nH]1 [Tozasertib] (partner 0.1 µM)
# Outline: as §1
# Etoposide + Decitabine = compound: COc1cc([C@@H]2c3cc4c(cc3[C@@H](O[C@@H]3O[C@@H]5CO[C@@H](C)O[C@H]5[C@H](O)[C@H]3O)[C@H]3COC(=O)[C@H]23)OCO4)cc(OC)c1O [Etoposide] + Nc1ncn([C@H]2C[C@H](O)[C@@H](CO)O2)c(=O)n1 [Decitabine] (partner 2 µM)
# Outline: as §1
Cell Line,relative viability (Bleomycin + Olaparib; first compound 0.01 µM),relative viability (Bleomycin + Olaparib; first compound 0.03162 µM),relative viability (Bleomycin + Olaparib; first compound 0.1 µM),relative viability (Bleomycin + Olaparib; first compound 0.3162 µM),relative viability (Bleomycin + Olaparib; first compound 1 µM),relative viability (Bleomycin + Lapatinib; first compound 0.01 µM),relative viability (Bleomycin + Lapatinib; first compound 0.03162 µM),relative viability (Bleomycin + Lapatinib; first compound 0.1 µM),relative viability (Bleomycin + Lapatinib; first compound 0.3162 µM),relative viability (Bleomycin + Lapatinib; first compound 1 µM),relative viability (Etoposide + Tozasertib; first compound 0.01 µM),relative viability (Etoposide + Tozasertib; first compound 0.03162 µM),relative viability (Etoposide + Tozasertib; first compound 0.1 µM),relative viability (Etoposide + Tozasertib; first compound 0.3162 µM),relative viability (Etoposide + Tozasertib; first compound 1 µM),relative viability (Etoposide + Decitabine; first compound 0.01 µM),relative viability (Etoposide + Decitabine; first compound 0.03162 µM),relative viability (Etoposide + Decitabine; first compound 0.1 µM),relative viability (Etoposide + Decitabine; first compound 0.3162 µM),relative viability (Etoposide + Decitabine; first compound 1 µM)
Calu-6,0.375,0.343,0.254,0.127,0.137,0.729,0.614,0.456,0.168,0.174,–,–,–,–,–,–,–,–,–,–
ChaGo-K-1,0.361,0.411,0.348,0.28,0.229,–,–,–,–,–,0.192,0.212,0.211,0.181,0.187,0.448,0.546,0.397,0.291,0.229
EBC-1,0.604,0.671,0.645,0.419,0.331,0.217,0.215,0.199,0.206,0.196,–,–,–,–,–,–,–,–,–,–
EKVX,0.719,0.563,0.501,0.244,0.231,0.211,0.209,0.187,0.127,0.166,0.412,0.355,0.312,0.326,0.221,0.281,0.351,0.282,0.31,0.229
EMC-BAC-2,0.35,0.428,0.404,0.324,0.221,0.817,0.754,0.719,0.399,0.305,0.251,0.276,0.288,0.221,0.203,0.938,0.893,0.606,0.323,0.298
EPLC-272H,0.407,0.237,0.183,0.0606,0.111,0.586,0.812,0.369,0.205,0.109,0.336,0.213,0.211,0.235,0.112,0.339,0.412,0.338,0.328,0.297
H3255,0.491,0.519,0.495,0.373,0.344,0.244,0.235,0.259,0.214,0.173,0.631,0.605,0.577,0.238,0.249,0.547,0.94,0.417,0.474,0.318
HARA,0.733,0.942,0.701,0.247,0.351,0.764,0.734,0.704,0.644,0.308,0.149,0.112,0.127,0.0757,0.0743,0.556,0.578,0.573,0.399,0.301
